Assay: Stability test: storage in nitrogen-filled sealed bottles, purity test by HPLC every month
Format: physicochemical
Settings: for purity by HPLC, Time (month) 1: 1 month; for purity by HPLC, Time (month) 2: 2 months; for purity by HPLC, Time (month) 3: 3 months; for purity by HPLC, Time (month) 4: 4 months; for purity by HPLC, Time (month) 5: 5 months; for purity by HPLC, Time (month) 6: 6 months; for Decomposition rate: over 6 months; for purity by HPLC, Time (month) 0: initial sample (0 month); for stability, molar ratio (NR to organic acid) 1:2 compared with 1:1: in words, comparison with the corresponding 1:1 product
Protocol: I. Preparation of samples
1. The products of Examples 1 to 4, Examples 10 to 13, and the comparative example were each dispensed into 13 bottles, each of 50 mg; and the bottles were filled with nitrogen and sealed. One of the bottles (initial sample) was first tested, and the remaining 12 bottles were divided into two groups (each with 6 bottles) and stored. The bottles in each group were numbered 1 to 6 according to a test sequence. The two groups of bottles were stored at 2° C. to 8° C. and −20° C., respectively; and one sample was tested every month.
2. The products of Examples 6 to 9 and Example 14 were each dispensed into 7 bottles, each of 50 mg; and the bottles were filled with nitrogen and sealed. One of the bottles (initial sample) was first tested, and the remaining 6 bottles were numbered 1 to 6 according to a test sequence and then stored at 2° C. to 8° C. One sample was tested every month.
II. Preparation of test sample solutions
One bottle of sample was taken at a time and prepared into a 5 mL or 10 mL solution using a 5 mL or 10 mL volumetric flask, and then the solution was filtered through a membrane to be ready for purity test by HPLC.
Mobile phase: isocratic elution: 5% water (0.1% formic acid)+95% methanol (0.1% formic acid)
Temperature and humidity: 23.0° C. and 54% RH
Sample dissolution: dissolution by methanol
Chromatographic column: ODS-2, 4.6 * 250 mm, 5 μm, and constant pressure: 12 Mpa to 13 Mpa
Running time: ≥15 min IV.

[1] = Table 2, stored at 2° C. to 8° C.

SMILES	purity by HPLC, Time (month) 1 (Table 1, stored at −20° C.)	purity by HPLC, Time (month) 2 (Table 1, stored at −20° C.)	purity by HPLC, Time (month) 3 (Table 1, stored at −20° C.)	purity by HPLC, Time (month) 4 (Table 1, stored at −20° C.)	purity by HPLC, Time (month) 5 (Table 1, stored at −20° C.)	purity by HPLC, Time (month) 6 (Table 1, stored at −20° C.)	Decomposition rate (Table 1, stored at −20° C.)	purity by HPLC, Time (month) 0 (Table 1, −20° C.)	purity by HPLC, Time (month) 0 (Table 2, 2° C. to 8° C.)	purity by HPLC, Time (month) 1 [1]	purity by HPLC, Time (month) 2 [1]	purity by HPLC, Time (month) 3 [1]	purity by HPLC, Time (month) 4 [1]	purity by HPLC, Time (month) 5 [1]	purity by HPLC, Time (month) 6 [1]	Decomposition rate [1]	stability, molar ratio (NR to organic acid) 1:2 compared with 1:1
NC(=O)c1ccc[n+]([C@@H]2O[C@H](CO)[C@@H](O)[C@H]2O)c1.[Cl-] [Comparative Example, chlorine salt of NR, reference compound]	98.284	98.087	97.701	97.449	97.575	97.210	1.33%	98.525	98.525	98.171	98.206	97.540	97.612	97.384	97.109	1.44%	
NC(=O)c1ccc[n+]([C@@H]2O[C@H](CO)[C@@H](O)[C@H]2O)c1.O=C(O)CC(O)(CC(=O)O)C(=O)[O-] [Example 1, citrate of NR (1:1)]	98.828	98.450	98.190	98.252	97.978	97.814	1.13%	98.930	98.930	98.198	98.409	98.171	97.957	97.823	97.670	1.27%	
NC(=O)c1ccc[n+]([C@@H]2O[C@H](CO)[C@@H](O)[C@H]2O)c1.O=C(O)CC(O)(CC(=O)O)C(=O)O.O=C(O)CC(O)(CC(=O)O)C(=O)[O-] [Example 2, citrate of NR (1:2)]	98.317	98.079	98.168	97.933	97.806	97.788	0.69%	98.471	98.471	98.492	98.240	98.097	97.626	97.704	97.498	0.99%	higher stability
NC(=O)c1ccc[n+]([C@@H]2O[C@H](CO)[C@@H](O)[C@H]2O)c1.O=C([O-])C[C@H](O)C(=O)O [Example 3, malate of NR (1:1)]	98.691	98.310	98.288	98.076	97.912	97.645	0.94%	98.573	98.573	98.482	98.185	98.270	97.946	97.592	97.337	1.25%	
NC(=O)c1ccc[n+]([C@@H]2O[C@H](CO)[C@@H](O)[C@H]2O)c1.O=C(O)C[C@H](O)C(=O)O.O=C([O-])C[C@H](O)C(=O)O [Example 4, malate of NR (1:2)]	98.547	98.629	98.316	98.207	98.081	98.100	0.73%	98.818	98.818	98.424	98.360	98.298	98.239	97.707	97.816	1.01%	higher stability

From patent US11505570B2, “Organic acid salt of nicotinamide riboside, composition including organic acid salt, and preparation methods of organic acid salt and composition” (SHENZHEN DIECKMANN TECH CO., LTD, priority 2020, dated 2022)
